Assay results: the supplement of paper PMC8920030

Tests used:
Details in all cases: growth mode: biofilm, 24 h; exposure time: 24 h
colistin [1] = compound: T1, CCC(C)CCCC(=O)N[C@@H](CCN)C(=O)N[C@H](C(=O)N[C@@H](CCN)C(=O)N[C@H]1CCNC(=O)[C@H]([C@@H](C)O)NC(=O)[C@H](CCN)NC(=O)[C@H](CCN)NC(=O)[C@H](CC(C)C)NC(=O)[C@@H](CC(C)C)NC(=O)[C@H](CCN)NC1=O)[C@@H](C)O [colistin]; test: minimum concentration of killing, 4-log CFU reduction of biofilm (MCK99.99); higher = more biofilm tolerance
Experimental: (§1)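 Clinical P. aeruginosa isolates were grown as static biofilms for 24 h at 37 °C in LB in half-area 96-well plates, then exposed for 24 h to colistin at 1, 4, 16, 64, 256 or […]. Surviving CFU were counted by spotting serial dilutions. MCK is the lowest tested concentration giving the stated log reduction in CFU versus an untreated control; '>1024' means the reduction was not reached at the top dose, and 1 is the lowest dose tested (≤1).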

tobramycin [2] = compound: T2, NC[C@H]1O[C@H](O[C@H]2[C@H](O)[C@@H](O[C@H]3O[C@H](CO)[C@@H](O)[C@H](N)[C@H]3O)[C@H](N)C[C@@H]2N)[C@H](N)C[C@@H]1O [tobramycin]; test: as above
Experimental: (§2)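 Clinical P. aeruginosa isolates were grown as static biofilms for 24 h at 37 °C in LB in half-area 96-well plates, then exposed for 24 h to tobramycin at 1, 4, 16, 64, 256 or […]. Surviving CFU were counted by spotting serial dilutions. MCK is the lowest tested concentration giving the stated log reduction in CFU versus an untreated control; '>1024' means the reduction was not reached at the top dose, and 1 is the lowest dose tested (≤1).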

colistin [3] = compound: T1, colistin; test: minimum concentration of killing, 2-log CFU reduction of biofilm (MCK99); higher = more biofilm tolerance
Experimental: as §1

colistin [4] = compound: T1, colistin; test: minimum concentration of killing, 1-log CFU reduction of biofilm (MCK90); higher = more biofilm tolerance
Experimental: as §1

tobramycin [5] = compound: T2, tobramycin; test: minimum concentration eradicating biofilm below detection limit (MCK-E); higher = more biofilm tolerance
Experimental: as §2

tobramycin [6] = compound: T2, tobramycin; test: minimum concentration of killing, 2-log CFU reduction of biofilm (MCK99); higher = more biofilm tolerance
Experimental: as §2

colistin [7] = compound: T1, colistin; test: minimum concentration eradicating biofilm below detection limit (MCK-E); higher = more biofilm tolerance
Experimental: as §1

tobramycin [8] = compound: T2, tobramycin; test: minimum concentration of killing, 1-log CFU reduction of biofilm (MCK90); higher = more biofilm tolerance
Experimental: as §2

Pseudomonas aeruginosa clinical isolate ESP066
minimum concentration of killing (colistin [1]): 1020 µg/mL
minimum concentration of killing (tobramycin [2]): > 1020 µg/mL
minimum concentration of killing (colistin [3]): 256 µg/mL
minimum concentration of killing (colistin [4]): 256 µg/mL
minimum concentration eradicating biofilm below detection limit (tobramycin [5]): > 1020 µg/mL
minimum concentration of killing (tobramycin [6]): 256 µg/mL
minimum concentration eradicating biofilm below detection limit (colistin [7]): 1020 µg/mL
minimum concentration of killing (tobramycin [8]): 256 µg/mL

Pseudomonas aeruginosa clinical isolate ESP067
minimum concentration of killing (colistin [1]): 256 µg/mL
minimum concentration of killing (tobramycin [2]): 256 µg/mL
minimum concentration of killing (colistin [3]): 256 µg/mL
minimum concentration of killing (colistin [4]): 64 µg/mL
minimum concentration eradicating biofilm below detection limit (tobramycin [5]): 1020 µg/mL
minimum concentration of killing (tobramycin [6]): 16 µg/mL
minimum concentration eradicating biofilm below detection limit (colistin [7]): 256 µg/mL
minimum concentration of killing (tobramycin [8]): 4 µg/mL

Pseudomonas aeruginosa clinical isolate ESP070
minimum concentration of killing (colistin [1]): 1020 µg/mL
minimum concentration of killing (tobramycin [2]): > 1020 µg/mL
minimum concentration of killing (colistin [3]): 256 µg/mL
minimum concentration of killing (colistin [4]): 64 µg/mL
minimum concentration eradicating biofilm below detection limit (tobramycin [5]): > 1020 µg/mL
minimum concentration of killing (tobramycin [6]): 1020 µg/mL
minimum concentration eradicating biofilm below detection limit (colistin [7]): 1020 µg/mL
minimum concentration of killing (tobramycin [8]): 1020 µg/mL

Pseudomonas aeruginosa clinical isolate ESP072
minimum concentration of killing (colistin [1]): 256 µg/mL
minimum concentration of killing (tobramycin [2]): 256 µg/mL
minimum concentration of killing (colistin [3]): 256 µg/mL
minimum concentration of killing (colistin [4]): 64 µg/mL
minimum concentration eradicating biofilm below detection limit (tobramycin [5]): 256 µg/mL
minimum concentration of killing (tobramycin [6]): 16 µg/mL
minimum concentration eradicating biofilm below detection limit (colistin [7]): 256 µg/mL
minimum concentration of killing (tobramycin [8]): 4 µg/mL

Pseudomonas aeruginosa clinical isolate ESP073
minimum concentration of killing (colistin [1]): 256 µg/mL
minimum concentration of killing (tobramycin [2]): 64 µg/mL
minimum concentration of killing (colistin [3]): 256 µg/mL
minimum concentration of killing (colistin [4]): 16 µg/mL
minimum concentration eradicating biofilm below detection limit (tobramycin [5]): 256 µg/mL
minimum concentration of killing (tobramycin [6]): 16 µg/mL
minimum concentration eradicating biofilm below detection limit (colistin [7]): 256 µg/mL
minimum concentration of killing (tobramycin [8]): 16 µg/mL

Pseudomonas aeruginosa clinical isolate ESP075
minimum concentration of killing (colistin [1]): 256 µg/mL
minimum concentration of killing (tobramycin [2]): 64 µg/mL
minimum concentration of killing (colistin [3]): 256 µg/mL
minimum concentration of killing (colistin [4]): 256 µg/mL
minimum concentration eradicating biofilm below detection limit (tobramycin [5]): 256 µg/mL
minimum concentration of killing (tobramycin [6]): 4 µg/mL
minimum concentration eradicating biofilm below detection limit (colistin [7]): 256 µg/mL
minimum concentration of killing (tobramycin [8]): ≤ 1 µg/mL

Pseudomonas aeruginosa clinical isolate ESP076
minimum concentration of killing (colistin [1]): 256 µg/mL
minimum concentration of killing (tobramycin [2]): > 1020 µg/mL
minimum concentration of killing (colistin [3]): 256 µg/mL
minimum concentration of killing (colistin [4]): 256 µg/mL
minimum concentration eradicating biofilm below detection limit (tobramycin [5]): > 1020 µg/mL
minimum concentration of killing (tobramycin [6]): > 1020 µg/mL
minimum concentration eradicating biofilm below detection limit (colistin [7]): 256 µg/mL
minimum concentration of killing (tobramycin [8]): > 1020 µg/mL

Pseudomonas aeruginosa clinical isolate ESP077
minimum concentration of killing (colistin [1]): 256 µg/mL
minimum concentration of killing (tobramycin [2]): 1020 µg/mL
minimum concentration of killing (colistin [3]): 64 µg/mL
minimum concentration of killing (colistin [4]): 64 µg/mL
minimum concentration eradicating biofilm below detection limit (tobramycin [5]): > 1020 µg/mL
minimum concentration of killing (tobramycin [6]): 1020 µg/mL
minimum concentration eradicating biofilm below detection limit (colistin [7]): 256 µg/mL
minimum concentration of killing (tobramycin [8]): 1020 µg/mL

Pseudomonas aeruginosa clinical isolate ESP081
minimum concentration of killing (colistin [1]): 256 µg/mL
minimum concentration of killing (tobramycin [2]): 64 µg/mL
minimum concentration of killing (colistin [3]): 256 µg/mL
minimum concentration of killing (colistin [4]): 256 µg/mL
minimum concentration eradicating biofilm below detection limit (tobramycin [5]): 64 µg/mL
minimum concentration of killing (tobramycin [6]): 16 µg/mL
minimum concentration eradicating biofilm below detection limit (colistin [7]): 256 µg/mL
minimum concentration of killing (tobramycin [8]): 4 µg/mL

Pseudomonas aeruginosa clinical isolate ESP083
minimum concentration of killing (colistin [1]): 256 µg/mL
minimum concentration of killing (tobramycin [2]): > 1020 µg/mL
minimum concentration of killing (colistin [3]): 64 µg/mL
minimum concentration of killing (colistin [4]): 4 µg/mL
minimum concentration eradicating biofilm below detection limit (tobramycin [5]): > 1020 µg/mL
minimum concentration of killing (tobramycin [6]): > 1020 µg/mL
minimum concentration eradicating biofilm below detection limit (colistin [7]): 256 µg/mL
minimum concentration of killing (tobramycin [8]): > 1020 µg/mL

Pseudomonas aeruginosa clinical isolate ESP088
minimum concentration of killing (colistin [1]): 256 µg/mL
minimum concentration of killing (tobramycin [2]): > 1020 µg/mL
minimum concentration of killing (colistin [3]): 64 µg/mL
minimum concentration of killing (colistin [4]): 64 µg/mL
minimum concentration eradicating biofilm below detection limit (tobramycin [5]): > 1020 µg/mL
minimum concentration of killing (tobramycin [6]): 1020 µg/mL
minimum concentration eradicating biofilm below detection limit (colistin [7]): 256 µg/mL
minimum concentration of killing (tobramycin [8]): 256 µg/mL

Pseudomonas aeruginosa clinical isolate ESP091
minimum concentration of killing (colistin [1]): 256 µg/mL
minimum concentration of killing (tobramycin [2]): 1020 µg/mL
minimum concentration of killing (colistin [3]): 256 µg/mL
minimum concentration of killing (colistin [4]): 256 µg/mL
minimum concentration eradicating biofilm below detection limit (tobramycin [5]): 1020 µg/mL
minimum concentration of killing (tobramycin [6]): 64 µg/mL
minimum concentration eradicating biofilm below detection limit (colistin [7]): 256 µg/mL
minimum concentration of killing (tobramycin [8]): 64 µg/mL

Pseudomonas aeruginosa clinical isolate ESP093
minimum concentration of killing (colistin [1]): 256 µg/mL
minimum concentration of killing (tobramycin [2]): > 1020 µg/mL
minimum concentration of killing (colistin [3]): 64 µg/mL
minimum concentration of killing (colistin [4]): 16 µg/mL
minimum concentration eradicating biofilm below detection limit (tobramycin [5]): > 1020 µg/mL
minimum concentration of killing (tobramycin [6]): 1020 µg/mL
minimum concentration eradicating biofilm below detection limit (colistin [7]): 256 µg/mL
minimum concentration of killing (tobramycin [8]): 4 µg/mL

Pseudomonas aeruginosa clinical isolate F1688
minimum concentration of killing (colistin [1]): 256 µg/mL
minimum concentration of killing (tobramycin [2]): 256 µg/mL
minimum concentration of killing (colistin [3]): 256 µg/mL
minimum concentration of killing (colistin [4]): 16 µg/mL
minimum concentration eradicating biofilm below detection limit (tobramycin [5]): 256 µg/mL
minimum concentration of killing (tobramycin [6]): 4 µg/mL
minimum concentration eradicating biofilm below detection limit (colistin [7]): 256 µg/mL
minimum concentration of killing (tobramycin [8]): 4 µg/mL
